Patent US20100260841A1, “Method of Treating Atherosclerosis, Dyslipidemias and Related Conditions” (priority 2007, published 2010)

Key:
[1] = patients, Compound E alone or coadministered with ERN
Protocol: (§1) Patients (N=412) were randomized to ERN 1 gram (given as Niaspan®, with no prior titration) plus compound E placebo, 18.75, 37.5, 75 or 150 mg, or double placebo for 4 weeks (acute phase) with doubling of the respective doses for the remaining 4 weeks (chronic phase). Patients reported flushing intensity using the validated Global Flushing Severity Score (GFSS); none/mild (0-3), moderate (4-6), severe (7-9) and extreme (10) in a daily eDiary. A subset of patients was randomized to compound E 150 mg versus placebo in a 4-week crossover safety study.

[2] = test system: extended-release niacin (ERN) induced flushing; settings: patients
Protocol: as §1

[3] = test system: lipid altering effects of ERN; settings: patients, Compound E 150 mg with ERN

Which results are given for CS(=O)(=O)c1cc(F)cc2c3c(n(Cc4ccc(Cl)cc4)c12)[C@@H](CC(=O)O)CC3 [Compound E]?
incidence of adverse experiences [1]: low incidence; acute phase flushing intensity compared to ERN alone ([2]; Compound E plus ERN 1 gram, first 4 weeks, GFSS, dose-response p<0.001): significantly lower; chronic phase flushing intensity compared to ERN alone ([2]; Compound E plus ERN, doubled doses, remaining 4 weeks, GFSS, dose-response p=0.021): significantly lower; tolerability and achievement of optimal therapeutic dosing of niacin ([2]; Compound E with ERN treatment): significantly improved; flushing intensity versus ERN alone at each coadministered dose ([2]; each coadministered dose of Compound E (18.75, 37.5, 75 or 150 mg), p<0.05): significantly (p<0.05) lower flushing intensity; impact on the lipid altering effects of ERN [3]: did not significantly impact
